These results are taken from US9301956B2, “Application of cinchona alkaloid derivatives as cytotoxic compounds” (ADAM MICKIEWICZ UNIVERSITY, priority 2014, dated 2016).

What all share (assay type): cell-based
One data set relates to HeLa (cervical cancer). The experiment in a line: Sulphorhodamine B cytotoxicity test, HeLa line. As to conditions: for IC50: Homo sapiens, HeLa. The procedure:
(§1) Cytotoxic activity tests were performed using the following cancer cell lines: MCF-7 (breast cancer), HeLa (cervical cancer) A549 (pulmonary cancer) and KB (nasopharynx cancer) obtained from ECACC (European Collection of Cell Cultures). Cytotoxicity tests were carried out using a standard procedure with sulphorhodamine B. They involved incubation of the cancer cell lines in the logarithmic growth phase for 72 hours with the compound tested and, subsequently, spectrophotometric determination of the degree of cell growth inhibition using adsorption of a dye (sulphorhodamine B) which binds cellular proteins. The determination was carried out according to a procedure reported in: Vichai, V., Kirtikara, K. Nature Protocols, 2006, 1, 1112. […] Solutions of the test compounds were prepared in DMSO in the following concentration range: 0.05; 0.1; 0.5; 1; 5; 10; 50; 100 μM. The cells of the lines tested were treated with the solutions of the test compounds in a laminar-flow chamber which ensured sterile working conditions according to the following procedure: the first three wells were used as a control: they contained 20 μL of DMSO only; successive solutions of the test compound were added to subsequent wells (20 μL), starting with the lowest concentration (three wells for each concentration level). Subsequently, the plates were placed in an incubator for 72 hours. After the end of incubation, the adhered cells were fixed by adding 500 μL of cold (4° C.) 50% trichloroacetic acid (TCA) and incubated at 4° C. for 1 hour. Subsequently, each well was rinsed with sterile water and dried. The operation was repeated five times. The fixed cells were stained for 30 minutes by adding 500 μL of 0.4% of a dye solution (sulphorhodamine B) dissolved in 1% acetic acid. […] Subsequently, the plates were dried in air for approx. 5 minutes. Any unbound dye was dissolved by adding 1500 μL of […] Tris-base buffer (trishydroxymethylaminomethane) to each well and shaken using an orbital shaker for 5 minutes. […] Depending on the type of the cell line, the following growth media were used: • the MCF-7 line was grown in Dulbecco's Modified Eagle's Medium (DME) from Sigma (cat. no. […] R8758).

Another data set deals with KB (nasopharynx cancer). Nature of the data set: Sulphorhodamine B cytotoxicity test, KB line. As to conditions: for IC50: average of three determinations, read-out: Cytotoxic activity, IC50, KB (nasopharynx cancer). The procedure:
as §1

Another data set has as its system MCF-7 (breast cancer). Nature of the data set: Sulphorhodamine B cytotoxicity test, MCF-7 line. As to conditions: for IC50: Homo sapiens, MCF7, 72 h incubation, SRB. As for the experimental part:
as §1

The test system of a further data set is A549 (lung cancer). The experiment in a line: Sulphorhodamine B cytotoxicity test, A549 line. As to conditions: for IC50: Homo sapiens. As for the experimental part: as §1
Data set [1] deals with cancer cell lines of breast cancer, cervical cancer, lung cancer and nasopharynx cancer. The experiment in a line: Sulphorhodamine B cytotoxicity test, cancer cell lines overall (line not specified). The procedure: Cytotoxic activity tests were performed using the following cancer cell lines: MCF-7 (breast cancer), HeLa (cervical cancer) A549 (pulmonary cancer) and KB (nasopharynx cancer) obtained from ECACC (European Collection of Cell Cultures).
Cytotoxicity tests were carried out using a standard procedure with sulphorhodamine B. They involved incubation of the cancer cell lines in the logarithmic growth phase for 72 hours with the compound tested and, subsequently, spectrophotometric determination of the degree of cell growth inhibition using adsorption of a dye (sulphorhodamine B) which binds cellular proteins. The determination was carried out according to a procedure reported in: Vichai, V., Kirtikara, K. Nature Protocols, 2006, 1, 1112.
Cancerous cells of the cell line tested in the logarithmic growth phase were seeded onto 24-well plates in a quantity of 20,000 cells/2 mL of the growth medium per well and, subsequently, incubated in an incubator at 37° C., in the 5% CO2 atmosphere for 24 hours. […]
After the end of incubation, the adhered cells were fixed by adding 500 μL of cold (4° C.) 50% trichloroacetic acid (TCA) and incubated at 4° C. for 1 hour. […] Subsequently, 200 μL of solution from each well was transferred to each of two wells on a new 96-well plate and absorption of the solutions was determined spectrophotometrically at a wavelength of 490-530 nm using a plate reader. […]

The mark [2] stands for this setting: 72 h incubation, SRB, average of three determinations, read-out: Cytotoxic activity, IC50, HeLa (cervical cancer).
The mark [3] stands for this setting: average of three determinations, read-out: Cytotoxic activity, IC50, MCF-7 line (breast cancer).
Setting [4] is: A549, 72 h incubation, SRB, average of three determinations, read-out: Cytotoxic activity, IC50, A549 (lung cancer).

Values after ≈ are worked out from the molar mass of the structure shown. Values joined by “and” are separate entries in the source; they are usually repeats but may differ in a detail not shown here. Equal entries are not always repeated. Where two headings read alike, the source gives them in different places.

In the case of `O=c1[nH]c(=O)n([C@H]2C[C@H](O)[C@@H](CO)O2)cc1F` [5-fluoro-2′-deoxyuridine], the IC50 in the data set with HeLa (cervical cancer) (setting [2]) is 3.2 µg/mL and 13 µM; in the data set with KB (nasopharynx cancer) (72 h incubation, SRB) it was 3.37 µg/mL and 13.7 µM; in the data set on MCF-7 (breast cancer) (setting [3]), 2.81 µg/mL and 11.4 µM; in the data set on A549 (lung cancer) (setting [4]), 3.3 µg/mL and 13.4 µM.
Turning to `O=c1[nH]cc(F)c(=O)[nH]1` [5-fluorouracil], the IC50 in the data set on HeLa (cervical cancer) (setting [2]) is 2.73 µg/mL and 21 µM; with KB (nasopharynx cancer) (72 h incubation, SRB) it was 2.86 µg/mL and 22 µM; with MCF-7 (breast cancer) (setting [3]), 2.37 µg/mL and 18.2 µM; in the data set with A549 (lung cancer) (setting [4]), 2.78 µg/mL and 21.4 µM.
In the case of `C#CCO[C@@H](c1ccnc2ccccc12)[C@H]1C[C@@H]2CCN1C[C@@H]2C=C` [PCN, 9-O-propargylcinchonine], the “times as cytotoxic as 5FU” value in the data set on HeLa (cervical cancer) (HeLa (cervical cancer), relative to 5FU) is “two times”; with MCF-7 (breast cancer) (MCF-7 line, relative to 5FU), “more than two times”; in the data set with A549 (lung cancer) (A549 (pulmonary cancer), relative to 5FU) it was “more than 1.8 times”. Also, the “times as cytotoxic as 5 FdU” value in the data set with HeLa (cervical cancer) (HeLa (cervical cancer), relative to 5 FdU) is given as 1.2 times. For the same compound, the “Cytotoxic activity class, KB (nasopharynx cancer)” value with KB (nasopharynx cancer) (72 h incubation, SRB) is given as “(A) (IC50<4 μg/mL are generally assumed as active (abbreviated as A))”. Besides, in the data set with KB (nasopharynx cancer) (KB (nasopharynx cancer), relative to 5FU), the “times as high activity compared to 5FU” value is recorded as 2.3 times. Further, the “times as high activity compared to 5 FdU” value in the data set with KB (nasopharynx cancer) (KB (nasopharynx cancer), relative to 5 FdU) is listed as 1.4 times. Besides, in the data set on MCF-7 (breast cancer) (MCF-7 line, relative to 5 FdU), the “times as active as 5 FdU” value was 1.3 times. In addition, in the data set on A549 (lung cancer) (A549 (pulmonary cancer), relative to 5 FdU), the “cytotoxicity compared with 5 FdU” value is “slightly more cytotoxic”. The “in vitro cytotoxicity against cancer cell lines” value in data set [1] is reported as “within the range of high activity”.
Consider `C=C[C@H]1C[N@@]2CC[C@H]1C[C@@H]2[C@@H](O)c1ccnc2ccccc12` [cinchonine], for which the IC50 is 4 to 30 µg/mL (≈ 13.6 to 102 µM) in the data set on HeLa (cervical cancer) (72 h, read-out: Cytotoxic activity class, HeLa (cervical cancer)); 4 to 30 µg/mL (≈ 13.6 to 102 µM) with MCF-7 (breast cancer) (read-out: Cytotoxic activity class, MCF-7 line (breast cancer)); 4 to 30 µg/mL (≈ 13.6 to 102 µM) with A549 (lung cancer) (A549, 72 h, read-out: Cytotoxic activity class, A549 (lung cancer)).
